Like-named read-outs stand apart in the source and are kept apart here.
How the values were obtained:
CFTR ΔF508 = molecular target: T1, CFTR ΔF508 (Homo sapiens, UniProt P13569, DEL508-508); assay: Chronic TECC assay, primary bronchial epithelial cells from CF patients homozygous for CFTR ΔF508; assay type: cell-based; conditions: for activity at 3 µM: read-out: % Activity at 3 μM (AUC**); for EC50: chronic TECC, with co-corrector and potentiator, AUC = full area under the curve upon forskolin stimulation
T1 construct: bronchial epithelial cells isolated from CF patients homozygous for the CFTR ΔF508 mutation; McGill University; Asterand; University of North Carolina hAEC-CF; host or cells: primary human bronchial epithelial cells from CF patients homozygous for ΔF508
Protocol: The TECC (Tranepithelial Clamp Circuit, EP-design) assay measures the functionality of the cystic fibrosis Transmembrane Conductance regulator (CFTR) by measuring the short circuit current (Isc) generated over the basolateral and apical membrane of lung epithelial cells. In TECC the transepithelial potential PD and transepithelial resistance (Rt) are measured in an open circuit and transformed to Ieq using Ohm's law. 24 Wells can be measured simultaneously allowing a higher throughput compared to Ussing chambers.
For this purpose, bronchial epithelial cells isolated from CF patients homozygous for the CFTR ΔF508 mutation (hAEC-CF, Epithelix, Geneva, Switzerland; McGill University, Montreal, Qc; Asterand, Detroit, Mich.; University of North Carolina, Chapel Hill, N.C.) are plated on type IV collagen-coated Transwell® supports (Costar).
For electrophysiological recording of the “chronic” experiments, the human airway epithelia are mounted in the TECC heating plate for electrophysiological measurement and kept at 37° C. The epithelia are bathed in a NaCl-Ringer solution (120 mM NaCl, 25 mM NaHCO3, 1.2 mM CaCl2), 1.2 mM MgCl2, 0.8 mM KH2PO4, 0.8 mM K2HP04, pH 7.4, 5 mM glucose) on both the basolateral and apical sides. Test compounds (corrector, co-corrector, 4-[(2R,4R)-4-({[1-(2,2-difluoro-1,3-benzodioxol-5-yl)cyclopropyl]carbonyl}amino)-7-(difluoromethoxy)-3,4-dihydro-2H-chromen-2-yl]benzoic acid, and potentiator, N-(3-carbamoyl-5,5,7,7-tetramethyl-4,7-dihydro-5H-thieno[2,3-c]pyran-2-yl)-1H-pyrazole-5-carboxamide), are re-added to the recording solution prior to measurement. […] Apical amiloride is used to inhibit the endogenous ENaC currents while forskolin is applied on both apical and basolateral side to stimulate CFTR. Measurements are done during a 20 minute timeframe with recordings every 2 minutes. The increase in Ieq is used as a measure for the increased CFTR activity, EC50 values can be generated by measuring impact of different concentrations of compound on Ieq on primary cells, for this purpose each transwell is treated with a different compound concentration. […] Raw data were normalized to percentage activity values using the equation: 100×(Sample−Negative control)/(Positive control−Negative Control).

ΔF508-CFTR = molecular target: T2, ΔF508-CFTR (Homo sapiens, UniProt P13569, DEL508-508); assay: CFTR cell surface levels using HRP-tagged ΔF508-CFTR expressing CFBE cells, intrinsic corrector capacity; assay type: cell-based; set-up: % Activation: concentration or dose not given beside the values; conditions: HRP-tagged ΔF508-CFTR expressing CFBE41o- cells; compounds alone (intrinsic corrector capacity); 20 hours at 33° C.
T2 construct: host or cells: CFBE41o- cells, doxycycline-inducible expression
Source text: Measuring CFTR Cell Surface Levels Using HRP-Tagged ΔF508-CFTR Expressing CFBE Cells
The HRP-tagged ΔF508-CFTR cell assay measures the expression of CFTR-ΔF508 at the plasma membrane. CFTR-ΔF508 has a folding defect leading to absence of protein at the plasma membrane. This assay is used to evaluate the capacity of compounds to increase the expression of CFTR-ΔF508 at the plasma membrane. […] When HRP-tagged ΔF508-CFTR is present at the plasma membrane, the HRP enzyme activity can be measured. The amount of CFTR-ΔF508 that can be rescued to the plasma membrane is correlated with the amount of functional enzyme that can be measured.
There are several ways to measure the capacity of compounds to rescue CFTR-ΔF508 to the plasma membrane; either compounds are evaluated on their own and the impact on plasma membrane levels is measured or compounds are evaluated in combination with a co-corrector, i.e. a compound that rescues CFTR-ΔF508 to the plasma membrane but rescue can be enhanced by addition of compounds due to a complementary mode of action.
Activity of Compounds for their Intrinsic Corrector Capacity:
On day four, L test compounds diluted in PBS were added to the plates at a final DMSO concentration of 0.1%. All compound plates contained negative controls (DMSO) and positive controls ([…] corrector, 3-[(2R,4R)-4-({[1-(2,2-difluoro-1,3-benzodioxol-5-yl)cyclopropyl]carbonyl}amino)-7-methoxy-3,4-dihydro-2H-chromen-2-yl]benzoic acid). Cell plates were incubated at 33° C., 5% CO2 for 20 hours. […] After incubation for 15 minutes in the dark, chemiluminescence was measured using a plate reader (EnVision®, Perkin Elmer). Raw data were normalized to percentage activity values using the equation: 100×(Sample−Negative control)/(Positive control−Negative Control).

[1] = read-out: % Activity at 1 μM (AUC**)

T1 sequence (P13569 with tags, fused parts or gaps DEL508-508): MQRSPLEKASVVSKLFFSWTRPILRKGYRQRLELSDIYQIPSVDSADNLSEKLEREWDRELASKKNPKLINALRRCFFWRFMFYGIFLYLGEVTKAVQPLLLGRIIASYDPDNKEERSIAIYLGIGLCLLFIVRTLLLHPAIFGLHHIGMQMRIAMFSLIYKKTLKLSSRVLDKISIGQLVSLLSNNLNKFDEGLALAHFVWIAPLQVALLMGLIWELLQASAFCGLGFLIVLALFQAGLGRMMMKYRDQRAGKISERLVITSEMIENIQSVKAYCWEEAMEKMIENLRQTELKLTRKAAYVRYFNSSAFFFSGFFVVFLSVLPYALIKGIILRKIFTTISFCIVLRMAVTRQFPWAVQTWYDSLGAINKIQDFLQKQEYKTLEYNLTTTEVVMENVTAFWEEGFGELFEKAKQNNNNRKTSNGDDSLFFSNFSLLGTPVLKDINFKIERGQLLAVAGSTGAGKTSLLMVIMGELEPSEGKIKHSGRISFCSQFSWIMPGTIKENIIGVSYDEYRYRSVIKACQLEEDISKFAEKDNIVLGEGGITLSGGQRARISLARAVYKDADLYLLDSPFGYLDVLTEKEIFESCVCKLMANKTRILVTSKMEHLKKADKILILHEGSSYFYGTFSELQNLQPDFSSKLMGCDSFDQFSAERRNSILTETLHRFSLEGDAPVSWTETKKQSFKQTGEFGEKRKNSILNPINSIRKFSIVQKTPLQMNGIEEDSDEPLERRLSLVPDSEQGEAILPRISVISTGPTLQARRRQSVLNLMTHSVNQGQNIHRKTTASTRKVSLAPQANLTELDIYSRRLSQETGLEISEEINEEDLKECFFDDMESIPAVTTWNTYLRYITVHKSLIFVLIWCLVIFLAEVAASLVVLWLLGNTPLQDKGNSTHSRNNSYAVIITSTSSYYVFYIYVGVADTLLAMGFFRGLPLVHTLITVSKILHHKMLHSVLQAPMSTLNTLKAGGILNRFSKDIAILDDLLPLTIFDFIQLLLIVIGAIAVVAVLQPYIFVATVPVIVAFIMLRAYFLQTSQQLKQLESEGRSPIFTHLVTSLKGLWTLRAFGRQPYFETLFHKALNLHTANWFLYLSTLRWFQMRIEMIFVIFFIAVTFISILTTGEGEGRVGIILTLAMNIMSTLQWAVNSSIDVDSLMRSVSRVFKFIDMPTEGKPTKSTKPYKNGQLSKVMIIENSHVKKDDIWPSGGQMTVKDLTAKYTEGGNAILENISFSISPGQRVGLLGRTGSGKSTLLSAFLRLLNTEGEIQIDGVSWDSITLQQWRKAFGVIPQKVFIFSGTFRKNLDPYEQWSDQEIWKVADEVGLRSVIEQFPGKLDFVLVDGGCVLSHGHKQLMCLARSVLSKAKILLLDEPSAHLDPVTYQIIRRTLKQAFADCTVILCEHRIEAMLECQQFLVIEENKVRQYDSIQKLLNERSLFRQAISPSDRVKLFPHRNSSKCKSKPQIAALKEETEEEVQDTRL
T2 sequence (P13569 with tags, fused parts or gaps DEL508-508): as above

CS(=O)(=O)NC(=O)c1cc(-c2ccc(N3CCC(C#N)CC3)nc2)c2c(C3CCC3)nn(-c3ccccc3)c2n1 [Compound 71, 4-[6-(4-cyanopiperidin-1-yl)pyridin-3-yl]-3-cyclobutyl-N-(methanesulfonyl)-1-phenyl-H-pyrazolo[3,4-b]pyridine-6-carboxamide]
activity at 1 µM (CFTR ΔF508; read-out: % Activity at 1 μM (Ieq*)): 270%

COCC1CCN(c2cc(C(=O)NS(C)(=O)=O)nc3c2c(C2CCC2)nn3-c2ccccc2)CC1 [Compound 185, 3-cyclobutyl-N-(methanesulfonyl)-4-[4-(methoxymethyl)piperidin-1-yl]-1-phenyl-1H-pyrazolo[3,4-b]pyridine-6-carboxamide]
activity at 1 µM (CFTR ΔF508; [1]): 453%

CS(=O)(=O)NC(=O)c1cc(N2CCC(N3CCOCC3)CC2)c2c(C3CCC3)nn(-c3ccccc3)c2n1 [Compound 328, 3-cyclobutyl-N-(methanesulfonyl)-4-[4-(morpholin-4-yl)piperidin-1-yl]-1-phenyl-1H-pyrazolo[3,4-b]pyridine-6-carboxamide]
activity at 1 µM (CFTR ΔF508; [1]): 532% | activity at 3 µM (CFTR ΔF508): 423%

CS(=O)(=O)NC(=O)c1cc(N2CCC(CCN3CCOCC3)CC2)c2c(C3CCC3)nn(-c3ccccc3)c2n1 [Compound 331, 3-cyclobutyl-N-(methanesulfonyl)-4-{4-[2-(morpholin-4-yl)ethyl]piperidin-1-yl}-1-phenyl-1H-pyrazolo[3,4-b]pyridine-6-carboxamide]
activity at 1 µM (CFTR ΔF508; [1]): 537%

CS(=O)(=O)NC(=O)c1cc(N2CCC(N3CCCCC3)CC2)c2c(C3CCC3)nn(-c3ccccc3)c2n1 [Compound 365, 4-([1,4′-bipiperidin]-1′-yl)-3-cyclobutyl-N-(methanesulfonyl)-1-phenyl-1H-pyrazolo[3,4-b]pyridine-6-carboxamide]
activity at 3 µM (CFTR ΔF508): 522%

COCC1CCN(c2cc(C(=O)NS(=O)(=O)CCO)nc3c2c(C2CCC2)nn3-c2ccccc2)CC1 [Compound 366, 3-cyclobutyl-N-(2-hydroxyethanesulfonyl)-4-[4-(methoxymethyl)piperidin-1-yl]-1-phenyl-1H-pyrazolo[3,4-b]pyridine-6-carboxamide]
activity at 1 µM (CFTR ΔF508; [1]): 428%

COCC1CN(C2CCN(c3cc(C(=O)NS(=O)(=O)N(C)C)nc4c3c(C3CCC3)nn4-c3ccc(F)cc3)CC2)CCO1 (stereo not drawn) [Compound 379, 3-cyclobutyl-N-(dimethylsulfamoyl)-1-(4-fluorophenyl)-4-{4-[2-(methoxymethyl)morpholin-4-yl]piperidin-1-yl}-1H-pyrazolo[3,4-b]pyridine-6-carboxamide]
activity at 1 µM (CFTR ΔF508; [1]): 370%

O=C(NS(=O)(=O)N1CCOCC1)c1cc(N2CCC(CN3CCCC3)CC2)c2c(C3CCC3)nn(-c3ccccc3)c2n1 [Compound 380, 3-cyclobutyl-N-(morpholine-4-sulfonyl)-1-phenyl-4-{4-[(pyrrolidin-1-yl)methyl]piperidin-1-yl}-1H-pyrazolo[3,4-b]pyridine-6-carboxamide]
activity at 3 µM (CFTR ΔF508): 250%

O=C(NS(=O)(=O)N1CCOCC1)c1cc(N2CCC(N3CCOCC3)CC2)c2c(C3CCC3)nn(-c3ccccc3)c2n1 [Compound 383, 3-cyclobutyl-N-(morpholine-4-sulfonyl)-4-[4-(morpholin-4-yl)piperidin-1-yl]-1-phenyl-1H-pyrazolo[3,4-b]pyridine-6-carboxamide]
activity at 3 µM (CFTR ΔF508): 299%

CNS(=O)(=O)NC(=O)c1cc(N2CCC(N3CCOCC3)CC2)c2c(C3CCC3)nn(-c3ccc(F)cc3)c2n1 [Compound 517, 3-cyclobutyl-1-(4-fluorophenyl)-N-(methylsulfamoyl)-4-[4-(morpholin-4-yl)piperidin-1-yl]-H-pyrazolo[3,4-b]pyridine-6-carboxamide]
activity at 3 µM (CFTR ΔF508): 309%

CC(C)Oc1nn(C2CCCCC2)c2nc(C(=O)NS(C)(=O)=O)cc(-c3ccc(C(=O)N4CC5CNCC5C4)cc3)c12 (stereo not drawn) [Compound 631, 1-cyclohexyl-4-[4-(hexahydropyrrolo[3,4-c]pyrrole-2(1H)-carbonyl)phenyl]-N-(methanesulfonyl)-3-[(propan-2-yl)oxy]-1H-pyrazolo[3,4-b]pyridine-6-carboxamide]
activity at 1 µM (CFTR ΔF508; [1]): 157%

CN(C(=O)c1cc(N2CCC(N3CCOCC3)CC2)c2c(C3CCC3)nn(-c3ccccc3)c2n1)S(C)(=O)=O [Compound 656, 3-cyclobutyl-N-(methanesulfonyl)-N-methyl-4-[4-(morpholin-4-yl)piperidin-1-yl]-1-phenyl-1H-pyrazolo[3,4-b]pyridine-6-carboxamide]
activity at 3 µM (CFTR ΔF508): 198%

COCC1CCN(c2cc(C(=O)N(C)S(C)(=O)=O)nc3c2c(C2CCC2)nn3-c2ccccc2)CC1 [Compound 657, 3-cyclobutyl-N-(methanesulfonyl)-4-[4-(methoxymethyl)piperidin-1-yl]-N-methyl-1-phenyl-1H-pyrazolo[3,4-b]pyridine-6-carboxamide]
activity at 3 µM (CFTR ΔF508): 358%

CCS(=O)(=O)N(C)C(=O)c1cc(N2CCC(N3CCOCC3)CC2)c2c(C3CCC3)nn(-c3ccccc3)c2n1 [Compound 658, 3-cyclobutyl-N-(ethanesulfonyl)-N-methyl-4-[4-(morpholin-4-yl)piperidin-1-yl]-1-phenyl-1H-pyrazolo[3,4-b]pyridine-6-carboxamide]
activity at 3 µM (CFTR ΔF508): 260%

CCS(=O)(=O)NC(=O)c1cc(-c2ccc(OC)cc2)c2c(C)nn(-c3ccccc3)c2n1 [compound 15]
% Activation (ΔF508-CFTR): 151.675%

CCS(=O)(=O)NC(=O)c1cc(-c2cnc(N(C)C)nc2)c2c(C3CN(C(=O)OC)C3)nn(C3CCCCC3)c2n1 [compound 52]
EC50 (ΔF508-CFTR): 11500 nM

CC(C)c1nn(C2CCCCC2)c2nc(C(=O)NS(C)(=O)=O)cc(-c3ccc(N4CCC(F)(F)C4)nc3)c12 [compound 64]
EC50 (ΔF508-CFTR): 835 nM

CS(=O)(=O)NC(=O)c1cc(N2CC3(CCOCC3)C2)c2c(C3CCC3)nn(-c3ccccc3)c2n1 [compound 204]
EC50 (ΔF508-CFTR): 978 nM

Cc1nn(C2CCCCC2)c2nc(C(=O)NS(=O)(=O)C3CC3)cc(-c3ccc(N4CCOCC4)cc3)c12 [compound 239]
EC50 (ΔF508-CFTR): 99.2 nM

CN(C)S(=O)(=O)NC(=O)c1cc(OCC2CCOCC2)c2c(C3CCC3)nn(-c3ccccc3)c2n1 [compound 334]
EC50 (CFTR ΔF508): 100 nM

CC(C)N1CCN(C2CCN(c3cc(C(=O)NS(=O)(=O)N(C)C)nc4c3c(C3CCC3)nn4-c3ccc(F)cc3)CC2)CC1 [compound 382]
EC50 (CFTR ΔF508): 100 nM

COCCS(=O)(=O)NC(=O)c1cc(-c2ccc(CN3CCOCC3)cc2)c2c(OC(C)C)nn(C3CCCCC3)c2n1 [compound 405]
% Activation (ΔF508-CFTR): 181.2%

CC(C)Oc1nn(C2CCCCC2)c2nc(C(=O)NS(=O)(=O)N(C)C)cc(-c3ccc(CN4CCOCC4)cc3)c12 [compound 406]
% Activation (ΔF508-CFTR): 160.8%

COCCS(=O)(=O)NC(=O)c1cc(N2CCC(N3CCOCC3)CC2)c2c(C3CCC3)nn(-c3ccc(F)cc3)c2n1 [compound 407]
% Activation (ΔF508-CFTR): 125.95%

CN(C)S(=O)(=O)NC(=O)c1cc(N2CCC(CN3CCOCC3)CC2)c2c(C3CCC3)nn(-c3ccc(F)cc3)c2n1 [compound 409]
% Activation (ΔF508-CFTR): 272.74%

CN1CCN(Cc2cc(C(=O)NS(C)(=O)=O)nc3c2c(C2CCC2)nn3-c2ccc(F)cc2)CC1 [compound 518]
EC50 (ΔF508-CFTR): 10000 nM

Reference: patent publication US20190202823A1, “N-SULFONYLATED PYRAZOLO[3,4-b]PYRIDIN-6-CARBOXAMIDES AND METHOD OF USE” (AbbVie S.à.r.l., priority 2015, published 2019)
